“And” between values parts separate entries of the source, which are not always exact repeats. Equal entries are not always repeated. Where two headings read alike, the source gives them in different places.
Legend:
[1] = target: T1, Connexin43 protein (hemichannels of hCMVEC cells) (Homo sapiens, UniProt P17302); assay type: cell-based; details: agent alone, 100 μM, FIG. 6, injury control 100±3.5%
T1 construct: In the ischemia injury model, hCMVEC cells were incubated for 2 hours; endogenous in cells; host or cells: hCMVEC (human cerebral microvascular endothelial cells)

[2] = target: T2, hemichannel-mediated ATP release from hCMVEC cells (Homo sapiens, UniProt P17302); test: In vitro ischemia injury ATP release assay (single alanine substituted and truncated peptides); assay type: cell-based
T2 construct: endogenous in cells; host or cells: hCMVEC (human cerebral microvascular endothelial cells)
Method: The human cerebral endothelial cells (hCMVEC) were plated at a density of 0.025×10^6 cells per well in a collagen-coated 12-well plate (1 μg/cm^2) a day prior to the experiment. Cells were incubated in culture medium overnight. Hypoxic, acidic, ion-shifted Ringer injury solution that mimics ionic concentrations and acid-base shifts of the interstitial space in hypoxic-ischemic brains (Bondarenko and Chesler, 2001, […]) was used to trigger hemichannel opening. The injury solution contained (in mM): 38 NaCl, 13 NaHCO3, 3 Na-gluconate, 65 K-gluconate, 38 NMDG-Cl, 1 NaH2PO4, and 1.5 MgCl2. The injury solution was bubbled in 95% N2, 5% CO2 gas (20 L/min) for 5 minutes and pH adjusted to 6.6 before use. The standard ringer solution contained (in mM): 124 NaCl, 3 KCl, 26 NaHCO3, 26 NaHCO3, 1 NaH2PO4, 1.3 CaCl2, 1.5 MgCl2, and 10 Glucose, and pH adjusted to 7.4 before use (Bondarenko and Chesler, 2001). In the ischemia injury model, hCMVEC cells were incubated for 2 hours in 500 μL injury solution+/−Peptide5 (100 μM) (O'Carroll et al., 2008, Cell communication & adhesion 15:27-42; Danesh-Meyer et al., 2012, Brain: a journal of neurology 135:506-520; Davidson et al., 2012, Annals of neurology 71:121-132; Davidson et al., 2013, Experimental neurology 248:301-308; Davidson et al., 2014, PloS one 9:e96558; Davidson et al., 2015, J Cereb Blood Flow Metab), or +/−extracellular loop sequences (Table 5), or modified peptides (Table 2, 3) dissolved in injury solution (500 μL) with a final concentration of 100 μM. For negative control, hCMVEC cells were incubated only in 500 μL standard ringer solution for 2 hours. For positive control, hCMVEC cells were incubated only in 500 μL […] for 2 hours. All incubations were conducted at 37° C. in 95% O2 and 5% CO2. At the end of each experiment, samples were removed and immediately placed on ice. The concentration of ATP in the samples was determined using a Luciferin/luciferase bioluminescence reaction (ATP Determination Kit, Molecular Probes) and detected using a luminescence plate reader (VICTOR X, Perkin Elmer #2030-0010). Standard curves were generated in each experiment from an ATP standard (0 to 500 nM) to convert bioluminescence units to ATP concentration. […] The data is presented as mean±standard error relative to the injury or injury-reperfusion positive control. Statistically significant differences between samples were tested using one-way analysis of variance and Tukey's multiple comparisons test.
Peptides listed in table 5 and 2 were assessed using the ischemia injury model in hCMVEC cells as described above, and the medium was collected for ATP release measurement.
The human cerebral endothelial cells (hCMVEC) were plated at a density of 0.025×10^6 cells per well in a collagen-coated 12-well plate (1 μg/cm^2) a day prior to the experiment. Cells were incubated in culture medium overnight. Hypoxic, acidic, ion-shifted Ringer injury solution that mimics ionic concentrations and acid-base shifts of the interstitial space in hypoxic-ischemic brains (Bondarenko and Chesler, 2001) was used to trigger hemichannel opening. The injury solution contained (in mM): 38 NaCl, 13 NaHCO3, 3 Na-gluconate, 65 K-gluconate, 38 NMDG-Cl, 1 NaH2PO4, and 1.5 MgCl2. The injury solution was bubbled in 95% N2, 5% CO2 gas (20 L/min) for 5 minutes and pH adjusted to 6.6 before use. The standard ringer solution contained (in mM): 124 NaCl, 3 KCl, 26 NaHCO3, 26 NaHCO3, 1 NaH2PO4, 1.3 CaCl2, 1.5 MgCl2, and 10 Glucose, and pH adjusted to 7.4 before use (Bondarenko and Chesler, 2001).

[3] = system: hemichannels and gap junction channels; details: O'Carroll et al., 2008; cited from earlier work
[4] = target: T1, Connexin43 protein (hemichannels of hCMVEC cells); assay type: cell-based
Method: (§1) Peptide5 interacting site on the Connexin43 protein was determined using a competition assay. Extracellular loop sequences (Auspep, Australia) were dissolved in miliQ H2O were at a stock concentration of 1 mM […]. Extracellular loop sequences were mixed with the native Peptide5 at 1:1 ratio (100 μM), which was left for 1 hour at room temperature prior to the experiment to allow competitive binding to occur. Following 1-hour incubation, extracellular loop sequence and peptide5 mixture was dissolved in injury solution and exposed to hCMVEC cells for 2 hours using the ischaemia-reperfusion model described above. Extracellular medium was then collected for ATP measurement.
as §1, with “interaction sites” for “interacting site”

T2 sequence (P17302 2-382 limits assumed): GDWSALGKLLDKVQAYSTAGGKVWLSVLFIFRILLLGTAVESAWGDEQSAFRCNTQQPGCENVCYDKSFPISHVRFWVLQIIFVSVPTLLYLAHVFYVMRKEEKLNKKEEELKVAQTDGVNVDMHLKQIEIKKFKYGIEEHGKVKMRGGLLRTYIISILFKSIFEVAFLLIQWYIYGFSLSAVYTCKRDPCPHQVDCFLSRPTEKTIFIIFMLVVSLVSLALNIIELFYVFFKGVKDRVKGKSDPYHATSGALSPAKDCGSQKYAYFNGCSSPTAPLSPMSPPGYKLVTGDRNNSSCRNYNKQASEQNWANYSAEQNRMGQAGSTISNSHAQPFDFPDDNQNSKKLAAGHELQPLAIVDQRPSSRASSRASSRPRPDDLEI
T1 sequence (P17302 2-382): as the sequence (P17302 2-382 limits assumed) above

Molecule	ATP release, % of the injury control [1] [%]	ATP release compared to injury control (in words) ([2]; hCMVEC, 100 μM, FIG. 3)	ATP release, % of the injury control ([2]; hCMVEC, ischemic injury solution 2 hours, 100 μM, FIG. 3, injury control 100±3.6%) [%]	ATP release compared to injury control (in words) [2]	ATP release, % of the injury control [2]	high concentration that inhibits both hemichannel and gap junction channel function [3] [µM]	low concentrations that specifically inhibit hemichannels [3] [µM]	ATP release, % of the injury control [4] [%]
CC1(C)[C@@H](OC(=O)CCC(=O)O)CC[C@]2(C)[C@H]3C(=O)C=C4[C@@H]5C[C@@](C)(C(=O)O)CC[C@]5(C)CC[C@@]4(C)[C@]3(C)CC[C@@H]12 [CBX, Carbenoxolone]	13.4±4.8	significantly reduced ATP release	9.1±10.1	–	–	–	–	–
VDCFLSRPTEKT [Peptide5]	–	–	–	significantly reduced ATP release	44.6±7.7% and 47.3±5.1%	500	5 to 50	54.1±4.4
